Reference: patent US10172832B2, “Amide derivatives of N-urea substituted amino acids as formyl peptide receptor like-1 (FPRL-1) receptor modulators” (Allergan, Inc., priority 2011, dated 2019)

Biological target: T1, FPRL-1 (Homo sapiens, UniProt P25090)
T1 construct: expressed in transfected cells
T1 sequence (P25090 1-351): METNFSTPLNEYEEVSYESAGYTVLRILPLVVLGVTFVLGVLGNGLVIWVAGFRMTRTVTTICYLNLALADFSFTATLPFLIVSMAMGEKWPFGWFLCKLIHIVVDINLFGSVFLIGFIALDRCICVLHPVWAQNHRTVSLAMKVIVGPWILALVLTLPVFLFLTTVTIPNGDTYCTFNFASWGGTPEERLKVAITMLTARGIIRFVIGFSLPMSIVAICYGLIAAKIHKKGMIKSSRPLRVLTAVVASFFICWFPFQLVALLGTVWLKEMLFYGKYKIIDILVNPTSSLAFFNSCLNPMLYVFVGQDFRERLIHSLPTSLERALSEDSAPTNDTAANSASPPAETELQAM
Assay: compound-induced calcium activity on FLIPR Tetra in CHO-Gα16 cells stably expressing FPRL1
Format: cell-based
Details: for FPRL-1 Ga16-CHO (Rel. eff.): relative efficacy; for EC50: tested 0.61 to 10,000 nM, read-out: FPRL-1 Ga16-CHO EC50
Method in brief: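 CHO-Gα16 cells stably expressing FPRL1, plated at 18,000 cells/well the day before, were read for compound-induced calcium response on FLIPR Tetra.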

Row | SMILES | FPRL-1 Ga16-CHO (Rel. eff.) | EC50 [nM]
1 | CC(C)(C)OC(=O)CNC(=O)C(CC(N)=O)NC(=O)Nc1ccc(Br)cc1 (centres unmarked) [Compound 88, tert-butyl {[4-amino-2-{[(4-bromophenyl)carbamoyl]amino}-4-oxobutanoyl]amino}acetate] | (0.90) | 2310
2 | NC(=O)CC(NC(=O)Nc1ccc(Br)cc1)C(=O)NCC(=O)O (centres unmarked) [[(4-amino-2-{[(4-bromophenyl)carbamoyl]amino}-4-oxobutanoyl)amino]acetic acid] | (0.81) | 2940
3 | CC(C)C[C@@H](NC(=O)Nc1ccc(Br)cc1F)C(=O)NCC(=O)O [{[(2R)-2-{[(4-bromo-2-fluorophenyl)carbamoyl]amino}-4-methylpentanoyl]amino}acetic acid] | (0.87) | 1490

Now those with a lower EC50, led by results:

Row | FPRL-1 Ga16-CHO (Rel. eff.) | EC50 [nM] | SMILES
4 | (0.74) | 490 | CC(C)C[C@@H](NC(=O)Nc1ccc(Br)cc1)C(=O)NC(C)(C)C(=O)O [Compound 87, 2-{[(2R)-2-{[(4-bromophenyl)carbamoyl]amino}-4-methylpentanoyl]amino}-2-methylpropanoic acid]
5 | (0.95) | 83 | CCC[C@H](NC(=O)Nc1ccc(Br)cc1F)C(=O)NCC(=O)OC(C)(C)C [tert-butyl {[(2S)-2-{[(4-bromo-2-fluorophenyl)carbamoyl]amino}pentanoyl]amino}acetate]
6 | (0.92) | 4.8 | CCC[C@H](NC(=O)Nc1ccc(Br)cc1F)C(=O)NCC(=O)O [{[(2S)-2-{[(4-bromo-2-fluorophenyl)carbamoyl]amino}pentanoyl]amino}acetic acid]
7 | (0.97) | 0.73 | O=C(O)CNC(=O)C(Cc1c[nH]c2ccccc12)NC(=O)Nc1ccc(Br)cc1 (centres unmarked) [{[2-{[(4-bromophenyl)carbamoyl]amino}-3-(1H-indol-3-yl)propanoyl]amino}acetic acid]
